BindingDB's records for patent US20240246981 (Boehringer Ingelheim International, 2024)

Columns and labels:
[1] = molecular target: Glutaminyl-peptide cyclotransferase-like protein (Homo sapiens, UniProt Q9NXS2); test: Biochemical QPCT and QPCTL Activity Assay
Procedure: (§1) QPCT or QPCTL dependent conversion of N-terminal glutamine to pyroglutamate of CD47 was monitored via MALDI-TOF MS. Test compounds were dissolved in 100% DMSO and serially diluted into clear 1,536-well microtiter plates. Enzymatic reactions were set up in assay buffer containing 20 mM Tris pH 7.5, 0.1 mM TCEP, 0.01% BSA, and 0.001% Tween20. […] The plates were incubated for 10 min in a humidified incubator at 24° C. Subsequently, 2.5 μL of CD47 peptide substrate surrogate (19[…]33) was added to each well (final concentration: 10 μM for QPCTL/20 μM for QPCT). The plates were mixed for 30 sec at 1,000 rpm and subsequently incubated for 40 min in a humidified incubator at 24° C. […] The plates were sealed with an adhesive foil, mixed for 30 s at 1,000 rpm and stored at room temperature until preparation of the MALDI target plates. MALDI target plates were prepared as described previously.

[2] = molecular target: Glutaminyl-peptide cyclotransferase (Homo sapiens, UniProt Q16769); test: Biochemical QPCT and QPCTL Activity Assay
Sequence of Glutaminyl-peptide cyclotransferase (Q16769 whole entry): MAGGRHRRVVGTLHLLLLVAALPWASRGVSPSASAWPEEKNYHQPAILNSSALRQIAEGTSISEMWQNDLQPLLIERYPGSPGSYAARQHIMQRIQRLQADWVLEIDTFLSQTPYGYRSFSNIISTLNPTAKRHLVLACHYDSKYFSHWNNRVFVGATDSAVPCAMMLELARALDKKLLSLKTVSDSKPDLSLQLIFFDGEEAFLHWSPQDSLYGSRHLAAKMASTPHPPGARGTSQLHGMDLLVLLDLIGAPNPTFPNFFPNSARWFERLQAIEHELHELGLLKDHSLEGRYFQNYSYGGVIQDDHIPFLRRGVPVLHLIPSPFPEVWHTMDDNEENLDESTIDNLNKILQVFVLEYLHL
Procedure: as §1

Sequence of Glutaminyl-peptide cyclotransferase-like protein (Q9NXS2 whole entry): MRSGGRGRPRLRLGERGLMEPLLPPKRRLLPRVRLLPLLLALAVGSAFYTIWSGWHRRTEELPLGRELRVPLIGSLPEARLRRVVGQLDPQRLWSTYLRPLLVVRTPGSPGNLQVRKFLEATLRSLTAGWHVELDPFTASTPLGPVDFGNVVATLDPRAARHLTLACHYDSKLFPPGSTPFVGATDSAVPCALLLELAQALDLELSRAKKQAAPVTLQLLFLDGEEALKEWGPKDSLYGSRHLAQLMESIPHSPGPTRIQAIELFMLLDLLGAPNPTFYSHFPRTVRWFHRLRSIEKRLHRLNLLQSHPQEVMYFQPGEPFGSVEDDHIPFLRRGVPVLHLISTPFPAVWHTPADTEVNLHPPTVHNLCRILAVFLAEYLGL

Compound | IC50 [1] | IC50 [2]
Cn1cnnc1C1CCN(c2c(C#N)cccc2-c2cnc(F)c(Oc3ccccc3)c2)CC1 [US20240246981, Example 38] | 13 nM | –
Cn1cnnc1C1CCN(c2c(C#N)cccc2-c2cnc3nn(C)c(C(F)(F)F)c3c2)CC1 [US20240246981, Example 41] | – | 9 nM
Cn1cnnc1C1(F)CCN(c2c(C#N)cccc2-c2cnc3nn(CC(F)(F)F)cc3c2)CC1 [US20240246981, Example 55] | 1 nM | –
Cn1cnnc1C1(C)CCN(c2c(C#N)cccc2-c2cccnc2)CC1 [US20240246981, Example 65] | 26 nM | 9 nM
Cn1cnnc1C1(F)CCN(c2c(C#N)cccc2-c2cnc(=O)n(C)c2)CC1 [US20240246981, Example 58] | 1 nM | –

Continued, values first:

IC50 [1] | IC50 [2] | Compound
1 nM | 6 nM | Cn1cnnc1C1CCN(c2c(C#N)cccc2-c2cnc(F)c(OC3CCC3)c2)CC1 [US20240246981, Example 34]
31 nM | 162 nM | Cn1cnnc1C1CCN(c2c(C#N)cccc2-c2cncc(OC(F)F)c2)CC1 [US20240246981, Example 23]
50 nM | 195 nM | Cn1cnnc1C1CCN(c2c(C#N)cccc2-c2cncc(-c3ccccc3)c2)CC1 [US20240246981, Example 21]
8 nM | 28 nM | Cn1cnnc1C1CCN(c2c(C#N)cccc2-c2cnc(F)c(OC(F)F)c2)CC1 [US20240246981, Example 37]
